How the values were obtained:
[1] = AUC (0 to 24 hrs) in African green monkey blood at 25 mg/kg administered as iv infusion twice daily for 7 consecutive days measured on day 7 by LC-MS/MS analysis; type: ADME, organism-based; design: time < 24 hr, dose 25 mg/kg, route intravenous; conditions: chlorocebus aethiops
African green monkey [2] = experiment: Toxicity in African green monkey 7929 model infected with Yersinia pestis Colorado 92 assessed as blood urea nitrogen level at 25 mg/kg, iv administered within 6 hrs post onset of sustained fever as 30 mins infusion for 10 days (reference value: 15 mg/dl); type: organism-based; conditions: chlorocebus sabaeus, in vivo
Yersinia pestis [3] = experiment: Antibacterial activity against Yersinia pestis Colorado 92 infected in African green monkey B6415 model assessed as bacterial burden in spleen at 25 mg/kg, iv administered within 6 hrs post onset of sustained fever as 30 mins infusion for 5 days (reference value: 1.6 10^9CFU/g); type: functional, CO92
Yersinia pestis [4] = experiment: Antibacterial activity against Yersinia pestis Colorado 92 infected in African green monkey B6127 model assessed as bacterial burden in spleen at 25 mg/kg, iv administered within 6 hrs post onset of sustained fever as 30 mins infusion for 10 days (reference value: 1.6 10^9CFU/g); type: functional, organism-based; conditions: CO92
African green monkey [5] = experiment: Toxicity in African green monkey B6127 model infected with Yersinia pestis Colorado 92 assessed as effect on serum electrolyte abnormality at 25 mg/kg, iv administered within 6 hrs post onset of sustained fever as 30 mins infusion for 10 days; type: organism-based; conditions: chlorocebus sabaeus, in vivo
Yersinia pestis [6] = experiment: Antibacterial activity against Yersinia pestis Colorado 92 infected in African green monkey B6988 model assessed as bacterial burden in lung at 6.25 mg/kg, iv administered within 6 hrs post onset of sustained fever as 30 mins infusion for 5 days (reference value: 7.7 10^8CFU/g); type: functional, CO92
Yersinia pestis [7] = experiment: Antibacterial activity against Yersinia pestis Colorado 92 infected in African green monkey B6872 model assessed as bacterial burden in liver at 25 mg/kg, iv administered within 6 hrs post onset of sustained fever as 30 mins infusion for 5 days (reference value: 5.2 10^8CFU/g); type: functional, organism-based; conditions: CO92
African green monkey [8] = experiment: Toxicity in African green monkey 7337 model infected with Yersinia pestis Colorado 92 assessed as serum alanine aminotransferase level at 25 mg/kg, iv administered within 6 hrs post onset of sustained fever as 30 mins infusion for 10 days (reference value: 55 IU/L); type: organism-based; conditions: chlorocebus sabaeus, in vivo
Yersinia pestis [9] = experiment: Antibacterial activity against Yersinia pestis Colorado 92 infected in African green monkey B6960 model assessed as bacterial burden in spleen at 6.25 mg/kg, iv administered within 6 hrs post onset of sustained fever as 30 mins infusion for 5 days (reference value: 1.6 10^9CFU/g); type: functional, CO92
Yersinia pestis [10] = experiment: Antibacterial activity against Yersinia pestis Colorado 92 infected in African green monkey B6960 model assessed as bacterial burden in liver at 6.25 mg/kg, iv administered within 6 hrs post onset of sustained fever as 30 mins infusion for 5 days (reference value: 5.2 10^8CFU/g); type: functional, CO92
African green monkey [11] = experiment: Toxicity in African green monkey B6428 model infected with Yersinia pestis Colorado 92 assessed as serum lactate dehydrogenase level at 25 mg/kg, iv administered within 6 hrs post onset of sustained fever as 30 mins infusion for 10 days (reference value: 238 IU/L); type: organism-based; conditions: chlorocebus sabaeus, in vivo
African green monkey [12] = experiment: Toxicity in African green monkey B6127 model infected with Yersinia pestis Colorado 92 assessed as inappetence at 25 mg/kg, iv administered within 6 hrs post onset of sustained fever as 30 mins infusion for 10 days; type: organism-based; conditions: chlorocebus sabaeus, in vivo
African green monkey [13] = experiment: Toxicity in African green monkey 7929 model infected with Yersinia pestis Colorado 92 assessed as serum creatinine level at 25 mg/kg, iv administered within 6 hrs post onset of sustained fever as 30 mins infusion for 10 days (reference value: 1 mg/dl); type: organism-based; conditions: chlorocebus sabaeus, in vivo
Yersinia pestis [14] = experiment: Antibacterial activity against Yersinia pestis Colorado 92 infected in African green monkey B6960 model assessed as bacterial burden in heart at 6.25 mg/kg, iv administered within 6 hrs post onset of sustained fever as 30 mins infusion for 5 days (reference value: 2.6 10^7CFU/g); type: functional, CO92
African green monkey [15] = experiment: Toxicity in African green monkey B6408 model infected with Yersinia pestis Colorado 92 assessed as serum alanine aminotransferase level at 25 mg/kg, iv administered within 6 hrs post onset of sustained fever as 30 mins infusion for 10 days (reference value: 109 IU/L); type: organism-based; conditions: chlorocebus sabaeus, in vivo
African green monkey [16] = experiment: Toxicity in African green monkey B6291 model infected with Yersinia pestis Colorado 92 assessed as serum lactate dehydrogenase level at 25 mg/kg, iv administered within 6 hrs post onset of sustained fever as 30 mins infusion for 10 days (reference value: 212 IU/L); type: organism-based; conditions: chlorocebus sabaeus, in vivo
Yersinia pestis [17] = experiment: Antibacterial activity against Yersinia pestis Colorado 92 infected in African green monkey C2149 model assessed as bacterial burden in brain at 6.25 mg/kg, iv administered within 6 hrs post onset of sustained fever as 30 mins infusion for 5 days (reference value: 1.9 10^6CFU/g); type: functional, CO92

`CN[C@@H]1[C@@H](O)[C@@H](O[C@@H]2[C@@H](O)[C@H](O[C@H]3OC(CNCCO)=CC[C@H]3N)[C@@H](N)C[C@H]2NC(=O)[C@@H](O)CCN)OC[C@]1(C)O` [PLAZOMICIN] gave an AUC at 24 h [1] of 208 µg·h/mL, an Activity (African green monkey [2]) of 17 mg/dL and an Activity (Yersinia pestis [3]) of 90 CFU/g. For the same compound, the Activity (Yersinia pestis [4]) was “Below limit of detection”, the Activity (African green monkey [5]) was “Toxic” and the Activity (Yersinia pestis [6]) was 3.2 ×10⁸ CFU/g. The Activity (Yersinia pestis [7]) was “Below limit of detection”, the Activity (African green monkey [8]) was 44 IU/L and the Activity (Yersinia pestis [9]) was 23 CFU/g. The Activity (Yersinia pestis [10]) was 38 CFU/g, the Activity (African green monkey [11]) was 299 IU/L and the Activity (African green monkey [12]) was “Toxic”. The Activity (African green monkey [13]) was 0.9 mg/dL, the Activity (Yersinia pestis [14]) was 1.2 ×10⁶ CFU/g and the Activity (African green monkey [15]) was 94 IU/L. It also gave an Activity (African green monkey [16]) of 259 IU/L and an Activity (Yersinia pestis [17]) of 46 CFU/g.

From ChEMBL document CHEMBL3868595, “Plazomicin is effective in a non-human primate pneumonic plague model” (Bioorg Med Chem, 2016)
